Source: the NIST ThermoML archive (doi:10.1016/j.fluid.2014.05.043)

Test: mn = molality of the nth substance listed, in mol/kg
Details: 101 kPa, Liquid; for molar conductivity: 293 K, Direct current cell with electrodes; for mass density: Vibrating tube method

CCCCCCCCCCCCCCCCCC(=O)O.NCCO [2-hydroxyethylammonium stearate] + O
Details | molar conductivity [S·m2/mol]
m1 = 2.77e-05 | 0.0501
m1 = 2.83e-05 | 0.0488
m1 = 2.89e-05 | 0.0477
m1 = 2.96e-05 | 0.0464
m1 = 3.03e-05 | 0.0452
m1 = 3.1e-05 | 0.044
m1 = 3.18e-05 | 0.0428
m1 = 3.26e-05 | 0.0415
m1 = 3.34e-05 | 0.0403
m1 = 3.43e-05 | 0.0392
m1 = 3.52e-05 | 0.0383
m1 = 3.61e-05 | 0.0371
m1 = 3.71e-05 | 0.0362
m1 = 3.82e-05 | 0.0347
m1 = 3.93e-05 | 0.0336
m1 = 4.05e-05 | 0.0323
m1 = 4.17e-05 | 0.0311
m1 = 4.31e-05 | 0.0297
m1 = 4.45e-05 | 0.0283
m1 = 4.6e-05 | 0.0271
m1 = 4.76e-05 | 0.0256
m1 = 4.94e-05 | 0.0241
m1 = 5.13e-05 | 0.0227
m1 = 5.33e-05 | 0.0214
m1 = 5.56e-05 | 0.0204
m1 = 5.81e-05 | 0.0194
m1 = 6.09e-05 | 0.0183
m1 = 6.38e-05 | 0.0172
m1 = 6.7e-05 | 0.0163
m1 = 7.07e-05 | 0.0153
m1 = 7.45e-05 | 0.0143

mass density [kg/m3]
Details | m1 = 5.8e-06 | m1 = 1.15e-05 | m1 = 1.73e-05 | m1 = 2.31e-05 | m1 = 2.89e-05
298.15 K | 996 | 994.86 | 997.03 | 996.95 | 997.02
303.15 K | 994.49 | 995.63 | 995.65 | 995.35 | 995.6
308.15 K | 990.78 | 994.03 | 993.99 | 993.62 | 993.99

O [water] + CCCCCCCCCCCCCCCCCC(=O)O.NCCO
m2 = 0
Details | mass density [kg/m3]
298.15 K | 996.06
303.15 K | 994.67
308.15 K | 993.01
